Source: patent publication US20080312128A1, “Cellular Biomarker Antioxidant Assay and Uses Thereof” (priority 2005, published 2008)
Read-outs that look alike come from different tables or passages of the source.

How the values were obtained:
FosB = settings: ARPE-19 cells
Procedure: For OS studies, ARPE19 cells were incubated for 1 hour at 37° C. in conditioned NR-1 media containing 50-500 μM H202. Cells were either not rinsed (1-, 2-, and 4-hour isolations) or rinsed using the Media Rinse 2 method (4-, 8-, and 24-hour isolations). At designated time-points, NR-1 medium was aspirated and the total cellular RNA was immediately isolated in TRI reagent (Sigma). Single wells were used in each plate to minimize any influence of temperature shifts on gene expression. All procedures were performed in a dim red light environment to reduce any influence of light on gene expression. RNA was isolated either before the onset of OS(O-hour control), or at 1, 2, 4, 8, or 24 hours after the start of the 1-hour OS treatment.
Assays of oxidative stress as described above with RPE cells were performed using the “no touch” technique, to determine whether OS-specific responses of FosB gene expression occurred during the first 8 hours after induction of stress. In addition, a dose-response study of FosB gene expression was performed to determine whether the degree of OS could be quantified using this molecular response.
(§1) Human retinal pigment epithelial (RPE) cells (ARPE-19) were cultured in DMEM/F12 media supplemented with 10% fetal bovine serum (FBS, Atlanta Biologicals, Norcross, Ga.) plus L-glutamine, penicillin, and streptomycin in an atmosphere of humidified 95% air and 5% CO2 at 37° C. until confluent in single wells of 6-well plates. The cells were initially grown in DMEM/F12 with FBS to reduce the time to reach confluence. Cells were then rinsed and fed with NR-1 media (BioSource, Camarillo, Calif.). NR-1 is a chemically defined tissue culture medium supplemented with EGF, insulin, hydrocortisone, and transferrin. After feeding with NR-1, the confluent cells were cultured for 3 days to stabilize gene expression.
(§2) The OS was not rinsed from the culture; rather, the NR-1 medium was aspirated and TRI Reagent (Sigma, St. Louis, Mo.) was immediately added to lyse the cells and stabilize the RNA at the designated time-points.
(§3) Total cellular RNA was isolated from the cells at time points 0, 1, and 4 hours using TRI reagent as described above using the protocol recommended by the manufacturer. The RNA was cleaned of trace DNA contaminants by treatment with DNA-Free (Ambion, Austin, Tex.) and the concentration was measured by spectrophotometry. The purified RNA was dissolved in DEPC-treated double distilled water at the concentration of 0.2 mg/ml. and stored at −80° C.
(§4) One μg of total cellular RNA was reversed transcribed (RT) in 20 μL of reaction volume using the Reverse Transcription System using the manufacturer's recommended protocol (Promega, Madison, Wis.). The RT product was diluted 1:5 with DNase-free water and quantitative PCR (qPCR) amplification was performed in 50 μl of buffer containing 1×SYBR® Green PCR Master mix (ABI), optimized forward and reverse qPCR primers and 5 μl of the 1:5 diluted RT product. The qPCR reaction was started at a 50° C. hold for 2 minutes, then 95° C. hold for 10 minutes, followed by 40 cycles of 95° C. for 15 seconds, and 60° C. for 1 minute. The reaction was performed using the ABI PRISM® 7700 Sequence Detection System.

cFos = experiment: H2O2-induced c-Fos transcription in cultured RPE cells, qPCR; type: cell-based, human; settings: for Fold change in expression, cFos, 1-Hr / Fold change in expression, cFos, 4-Hr: ARPE-19 cells
Procedure: as §1, §2, §3, §4

ATF3 = experiment: H2O2-induced ATF3 transcription in cultured RPE cells, qPCR; type: cell-based, human; settings: for Fold change in expression, ATF3, 1-Hr / Fold change in expression, ATF3, 4-Hr: ARPE-19 cells
Procedure: as §1, §2, §3, §4

CRYBA = settings: ARPE-19 cells
Procedure: as §1, §2, §3, §4

JunB = experiment: H2O2-induced JunB transcription in cultured RPE cells, qPCR; type: cell-based, human; settings: for Fold change, JunB, 1-Hr / Fold change, JunB, 4-Hr: ARPE-19 cells
Procedure: as §1, §2, §3, §4

HO-1 = experiment: H2O2-induced HO-1 transcription in cultured RPE cells, qPCR; type: cell-based, human; settings: for Fold change, HO-1, 1-Hr / Fold change, HO-1, 4-Hr: ARPE-19 cells
FosL = experiment: H2O2-induced FosL transcription in cultured RPE cells, qPCR; type: cell-based, human
Procedure: as §1, with “After feeding with NR-1, the confluent cells were cultured for 3 days to stabilize gene expression.” left out
Total cellular RNA was isolated from the cells at time points 0, 1, and 4 hours using TRI reagent as described above using the protocol recommended by the manufacturer. The RNA was cleaned of trace DNA contaminants by treatment with DNA-Free (Ambion, Austin, Tex.) and the concentration was measured by spectrophotometry. […]
One μg of total cellular RNA was reversed transcribed (RT) in 20 μL of reaction volume using the Reverse Transcription System using the manufacturer's recommended protocol (Promega, Madison, Wis.). The RT product was diluted 1:5 with DNase-free water and quantitative PCR (qPCR) amplification was performed in 50 μl of buffer containing 1×SYBR® Green PCR Master mix (ABI), optimized forward and reverse qPCR primers and 5 μl of the 1:5 diluted RT product. […]

[1] = test system: CRYAA, CRYBB, and CRYGS crystallin genes; experiment: H2O2-induced transcription of crystallin genes in cultured RPE cells, qPCR; type: cell-based, human; settings: 100 μM and 500 μM H2O2, 1 and 4 hours
Procedure: Transcription of the above-identified crystallin genes was quantified at 1 and 4 hours in cells exposed to 100 μM and 500 μM H2O2-induced OS, and compared to controls.

ARPE-19 cells = settings: confluent cell culture, MTT

OO [H2O2]
16 fold: Fold change in expression, FosB, 1-Hr (FosB; 500 μM H2O2, 1 h) | Fold change in expression, cFos, 4-Hr (cFos; 350 μM H2O2, 4 h)
does not induce: Induction of CRYAA, CRYBB, and CRYGS crystallin genes [1]
32 fold: Fold change in expression, cFos, 4-Hr (cFos; 500 μM H2O2, 4 h)
3 fold: Fold change in expression, cFos, 4-Hr (cFos; 200 μM H2O2, 4 h) | Fold change in expression, ATF3, 4-Hr (ATF3; 200 μM H2O2, 4 h) | Fold change in expression, ATF3, 1-Hr (ATF3; 500 μM H2O2, 1 h) | Fold change in expression, CRYBA, 4-Hr (CRYBA; 100 μM H2O2, 4 h) | Fold change in expression, CRYBA, 1-Hr (CRYBA; 350 μM H2O2, 1 h) | Fold change in expression, CRYBA, 4-Hr (CRYBA; 350 μM H2O2, 4 h) | Fold change, JunB, 1-Hr (JunB; 500 μM H2O2, 1 h) | Increase in FosL transcription compared to controls (FosL; 4 hours after OS, highest OS dose)
7 fold: Fold change in expression, cFos, 1-Hr (cFos; 350 μM H2O2, 1 h)
12 fold: Fold change in expression, cFos, 1-Hr (cFos; 500 μM H2O2, 1 h)
55%: 500 μM H2O2 for up to 4-hours as percent of dose required to induce 10% cell death (LD10) (ARPE-19 cells)
4 fold: Fold change in expression, cFos, 1-Hr (cFos; 200 μM H2O2, 1 h) | Fold change in expression, CRYBA, 1-Hr (CRYBA; 500 μM H2O2, 1 h) | Fold change in expression, CRYBA, 4-Hr (CRYBA; 500 μM H2O2, 4 h) | Fold change, JunB, 4-Hr (JunB; 200 μM H2O2, 4 h) | Fold change, JunB, 4-Hr (JunB; 350 μM H2O2, 4 h) | Fold change, JunB, 4-Hr (JunB; 500 μM H2O2, 4 h)
1 fold: Fold change in expression, cFos, 4-Hr (cFos; 50 μM H2O2, 4 h) | Fold change in expression, CRYBA, 1-Hr (CRYBA; 100 μM H2O2, 1 h) | Fold change in expression, CRYBA, 4-Hr (CRYBA; 200 μM H2O2, 4 h) | Fold change, JunB, 4-Hr (JunB; 50 μM H2O2, 4 h)
8 fold: Elevation of c-Fos transcription over controls (cFos; after 4 hours of OS) | Fold change in expression, ATF3, 4-Hr (ATF3; 350 μM H2O2, 4 h) | Fold change, JunB, 4-Hr (JunB; 100 μM H2O2, 4 h) | Fold change, HO-1, 4-Hr (HO-1; 100 μM H2O2, 4 h) | Fold change, HO-1, 4-Hr (HO-1; 200 μM H2O2, 4 h)
−2 fold: Fold change in expression, CRYBA, 4-Hr (CRYBA; 50 μM H2O2, 4 h)
up to 12 fold: Increase in transcription of c-Fos (maximum) (cFos; after 1 hour of OS, 0-500 μM H2O2)
0 fold: Fold change in expression, cFos, 1-Hr (cFos; 50 μM H2O2, 1 h) | Fold change in expression, cFos, 1-Hr (cFos; 100 μM H2O2, 1 h) | Fold change in expression, ATF3, 1-Hr (ATF3; 50 μM H2O2, 1 h) | Fold change in expression, ATF3, 4-Hr (ATF3; 50 μM H2O2, 4 h) | Fold change in expression, ATF3, 1-Hr (ATF3; 100 μM H2O2, 1 h) | Fold change in expression, ATF3, 4-Hr (ATF3; 100 μM H2O2, 4 h) | Fold change in expression, CRYBA, 1-Hr (CRYBA; 50 μM H2O2, 1 h) | Fold change, JunB, 1-Hr (JunB; 50 μM H2O2, 1 h) | Fold change, JunB, 1-Hr (JunB; 100 μM H2O2, 1 h) | Fold change, JunB, 1-Hr (JunB; 200 μM H2O2, 1 h) | Fold change, JunB, 1-Hr (JunB; 350 μM H2O2, 1 h)
~4 fold: Level of JunB transcriptional activation (JunB; 4 hours, all levels of OS ≧about 100 μM H2O2)
64 fold: Fold change in expression, FosB, 4-Hr (FosB; 500 μM H2O2, 4 h)
~3 fold: Increase in ATF3 transcription (ATF3; 1 hour after OS)
6 fold: Fold change in expression, FosB, 4-Hr (FosB; 100 μM H2O2, 4 h) | Fold change in expression, FosB, 1-Hr (FosB; 200 μM H2O2, 1 h) | Fold change in expression, FosB, 4-Hr (FosB; 200 μM H2O2, 4 h) | Fold change in expression, FosB, 1-Hr (FosB; 350 μM H2O2, 1 h) | Fold change, HO-1, 4-Hr (HO-1; 350 μM H2O2, 4 h) | Fold change, HO-1, 4-Hr (HO-1; 500 μM H2O2, 4 h)
above 50 μM: H2O2 level above which HO-1 threshold response is seen (HO-1)
2 fold: Fold change in expression, FosB, 1-Hr (FosB; 50 μM H2O2, 1 h) | Fold change in expression, FosB, 4-Hr (FosB; 50 μM H2O2, 4 h) | Fold change in expression, FosB, 1-Hr (FosB; 100 μM H2O2, 1 h) | Fold change in expression, cFos, 4-Hr (cFos; 100 μM H2O2, 4 h) | Fold change in expression, ATF3, 1-Hr (ATF3; 200 μM H2O2, 1 h) | Fold change in expression, ATF3, 1-Hr (ATF3; 350 μM H2O2, 1 h) | Fold change in expression, CRYBA, 1-Hr (CRYBA; 200 μM H2O2, 1 h) | Fold change, HO-1, 1-Hr (HO-1; 50 μM H2O2, 1 h) | Fold change, HO-1, 4-Hr (HO-1; 50 μM H2O2, 4 h) | Fold change, HO-1, 1-Hr (HO-1; 100 μM H2O2, 1 h) | Fold change, HO-1, 1-Hr (HO-1; 200 μM H2O2, 1 h) | Fold change, HO-1, 1-Hr (HO-1; 350 μM H2O2, 1 h) | Fold change, HO-1, 1-Hr (HO-1; 500 μM H2O2, 1 h) | Increase in FosL transcription (FosL; after 1 hour of OS, 100 μM and 500 μM H2O2)
20 fold: Fold change in expression, FosB, 4-Hr (FosB; 350 μM H2O2, 4 h)
